Measured values reported in US9109001B2, “3′,5′-cyclic phosphoramidate prodrugs for HCV infection” (priority 2012, dated 2015).
Read-outs that look alike come from different tables or passages of the source.

Key:
[1] = Stability in fresh human whole blood; assay type: in vitro ADME; conditions: 0.5 μM, percent unchanged test compound
Description: Stability in Fresh Whole Blood: Stability of test compounds were determined in fresh human whole blood with K2EDTA as the anticoagulant (stored refrigerated at 2-8° C. and used within 7 days of receipt). The experiment was conducted with three replicates for each time point. Whole blood, pre-incubated at 37° C. for 10-15 minutes, was fortified with a solution of test compound for a final concentration of 0.5 μM and mixed for 30 sec. At intervals (0, 0.5, 1 and 2 hr), three 50-μL aliquots were combined with 200 μL (each) of an ice-cold solution of the internal standard (carbutamide 500 ng/mL in acetonitrile). The samples were vortexed for 30 sec and then centrifuged at 16,100 g for 5 min. The supernatant was analyzed by LC-MS/MS. The MS peak area ratio of the test compound versus the internal standard was calculated and percent unchanged test compound was calculated for each time point using this ratio.

[2] = Stability in human intestinal microsomes; assay type: in vitro ADME; conditions: 10 μM, 1.0 mg/mL protein, NADPH, 60 min; percent unchanged
Description: Stability in Liver and Intestinal Subcellular Fractions: Stability of test compounds were determined in subcellular fractions (microsomes and S9) of human liver and intestine in duplicate for each matrix. Pooled liver and intestinal microsomal, intestinal and liver S9 proteins (1.0 mg/mL), suspended in incubation buffer (100 mM potassium phosphate, pH 7.4, 5 mM MgCl2, and 0.1 mM EDTA), were preincubated for 5 min at 37° C. with 10 μM of a test compound from a 10 mM stock solution in DMSO (final DMSO concentration was 0.1%); the reaction was initiated by the addition of NADPH (3 mM final concentration). At specific times (0 and 60 min), 0.1 mL samples were taken and the reaction terminated by the addition of 4 volumes of stop solution (acetonitrile with 500 ng/mL carbutamide as an internal standard). The samples were vortexed for 30 sec and then centrifuged at 16,000 g for 10 min. 100 μL of supernatants were transferred to 96 deep-well plates preloaded with 100 μL distilled water and analyzed after mixing by LC-MS/MS. The MS peak area ratio of the test compound versus the internal standard was calculated and percent unchanged test compound over 60 minutes was calculated using this ratio.

mouse hepatocytes = assay: Release of active metabolite in mouse hepatocytes; assay type: in vitro ADME; conditions: 10 μM
Description: (§1) Assay for the Release of Active Metabolite in Primary Hepatocytes: Plates of fresh human and mouse hepatocytes were obtained on ice. The medium was removed and replaced with hepatocyte culture medium (William's E supplemented with penicillin-streptomycin, 1% L-glutamine, 1% insulin-transferrin-selenium and 0.1 μM Dexamethasone (Invitrogen) or with Invitro GRO HI medium complemented with Torpedo antibiotics (Celsis)). Cells were left overnight in an incubator at 37° C. to acclimatize to culture and the medium.
(§2) Hepatocyte incubations were conducted at a final volume of 0.5 mL hepatocyte culture medium/well (0.8 million cells/well for human and 0.5 million cells/well for mouse; 12 well plate no overlay, collagen coat). Culture medium from overnight incubation of cells was removed and replaced with fresh medium, pre-warmed to 37° C., containing 10 μM of test compound from a stock solution in DMSO (final DMSO concentration was 0.1%). At each specific time point, incubation medium was removed and cell monolayers were carefully washed two times with ice-cold PBS. Following the last wash, all PBS was carefully removed and 1.0 mL of extraction solution (ice-cold 70% methanol/30% water) added. Cells were scraped off and suspended in the extraction solution, transferred to 2 mL polypropylene microfuge tubes and intracellular contents extracted overnight at −20° C.
(§3) After the overnight treatment the cellular extracts were prepared by centrifugation at 16,000×g for 10 min to remove cellular debris. The remaining sample was then dried using a refrigerated centrivap concentrator. Dry extracts were reconstituted in 1000 μL of HPLC-grade water and centrifuged at 16,000×g for 10 min. Aliquots (100 μL each) of the supernatant were transferred into a 96 well plate and internal standard (4 ng/mL final concentration) was added as the internal standard (IS) for LC-MS/MS analysis.
(§4) The incubation time points were 6, 24 and 48 hours for human hepatocytes and 1, 4, 8, 12 and 24 hours for mouse hepatocytes.

[3] = Stability in simulated intestinal fluid; assay type: in vitro ADME; conditions: 100 μM, 2 hours at 37° C.; percent of peak area at time zero
Description: (§5) Stability in Simulated Gastric and Intestinal Fluids: Simulated gastric and intestinal fluids containing pepsin and pancreatin respectively were prepared according to the U.S. Pharmacopoeia USP291 procedure (www.pharmacopeia.cn/v29240/usp29nf24s0_ris1s126.html). Test compound (final concentration 100 μM) was incubated in duplicate in the appropriate fluid for 2 hours at 37° C. The samples were quenched with 200 μl cold acetonitrile, vortexed for 30 seconds and then centrifuged at 16,100 g for 10 min. The supernatants were analyzed by HPLC on a C-18 column with UV detection at 252 nm. The time 0 samples were prepared by adding SGF or SIF fluid to the quenching solvent followed by the test compound. Stability of the compound was determined by peak area the test compound after incubation and calculated as percent of the peak area observed at time zero.

HCV genotype 1b replicon = assay: HCV Replicon Assay; assay type: cell-based; conditions: Zluc (Huh-7-derived) cells, HCV genotype 1b replicon, luciferase reporter, 72 hours, read-out: HCV Replicon EC50
Description: Huh-7-derived cell line (Zluc) that harbors an HCV genotype 1b replicon and a luciferase reporter gene was grown in Dulbecco's Modified Eagle Medium (DMEM) supplemented with 10% fetal bovine serum, 2 mM GlutaMAX, 1% MEM nonessential amino acids, 100 IU/mL penicillin, 100 μg/mL streptomycin, and 0.5 mg/mL Geneticin® (G418). For dose response testing the cells were seeded in 96-well plates at 7.5×10^3 cells per well in a volume of 50 μL, and incubated at 37° C./5% CO2. Drug solutions were made up freshly in Huh-7 media as 2× stocks. Ten additional 5-fold dilutions were prepared from these stocks in DMEM without G418. At least three hours after Zluc cells were seeded, drug treatment was initiated by adding 50 μL of drug dilutions to the plates in duplicate. Final concentrations of drug ranged from 100 μM to […]. Cells were then incubated at 37° C./5% CO2. Alternatively, compounds were tested at two concentrations (1 μM and 10 μM). […] For this, media was removed from the plates via gentle tapping. Fifty microliters of ONE-glo luciferase assay reagent was added to each well. The plates were shaken gently for 3 min at room temperature and luminescence was measured on a Victor^3 V 1420 multilabel counter (Perkin Elmer) with a 1 second read time using a 700 nm cut-off filter. The EC50 values were calculated from dose response curves from the resulting best-fit equations determined by Microsoft Excel and XLfit 4.1 software. When screening at two fixed concentrations, the results were expressed as % inhibition at 1 μM and 10 μM.

fresh human hepatocytes = assay: Release of active metabolite in fresh human hepatocytes; assay type: in vitro ADME; conditions: 10 μM
Description: as §1, §2, §3, §4

[4] = Stability in simulated gastric fluid; assay type: in vitro ADME; conditions: 100 μM, 2 hours at 37° C.; percent of peak area at time zero
Description: as §5

| SMILES | Stability WB_Human (37° C.; 2 hr) [1] [%] | Stability HIM (1 hr) [2] [%] | MsH AUC (pmol · hr/mill cells) (mouse hepatocytes) | MsH Cmax (pmol/mill cells) (mouse hepatocytes) | Stability SIF [3] [%] | EC50 (HCV genotype 1b replicon; Hepatitis C virus, 72 h) [nM] | FHH TP AUC (pmol · hr/mill cells) (fresh human hepatocytes) | FHH TP Cmax (pmol/mill cells) (fresh human hepatocytes) | FHH TP (24 hr) (fresh human hepatocytes; 24 hr) | Stability SGF [4] [%] | EC50 (HCV genotype 1b replicon) [nM] | FHH TP (48 hr) (fresh human hepatocytes; 48 hr) |
| --- | --- | --- | --- | --- | --- | --- | --- | --- | --- | --- | --- | --- |
| CCOc1nc(N)nc2c1ncn2[C@@H]1O[C@@H]2COP(=O)(N[C@@H](C)C(=O)OC(C)C)O[C@H]2[C@@]1(C)F (single isomer, unassigned) [Compound 1 Diastereomer 1] | 87 | 70 | 4700 | 2296 | 83 | 250 to 1000 | 9842 | 687 | BLD^a | 87 | – | – |
| CCOc1nc(N)nc2c1ncn2[C@@H]1O[C@@H]2COP(=O)(N[C@@H](C)C(=O)OC(C)C)O[C@H]2[C@@]1(C)F (single isomer, unassigned) [Compound 1 Diastereomer 2] | 67 | 98 | 1451 | 884 | 2 | – | 5774 | 309 | – | 83 | < 250 | BLD^a |
